Patent US5223509A, “β-carbolines as cholecystokinin and gastrin antagonists” (priority 1992, dated 1993)
Non-standard residues stand in square brackets, D forms with d. Residues, ends and D or L forms follow the SMILES beside them. *: point of attachment. sY = N[C@@H](Cc1ccc(OS(=O)(=O)O)cc1)C(=O)O; Cbz = O=C(OCc1ccccc1)*

Columns and labels:
[1] = molecular target: T1, CCK receptor (pancreas) (Rattus norvegicus, UniProt P30551); experiment: CCK Receptor Binding (Pancreas), 125I-CCK-33; parameters: species or system rat (male Sprague-Dawley); settings: for IC50: rat pancreas membranes, 125I-CCK-33, 37° C., 30 minutes; for effect on the 125I-CCK receptor binding assay: added protease inhibitors
T1 construct: The whole pancreas was dissected free of fat tissue and was homogenized; from tissue; host or cells: rat pancreas membranes (male Sprague-Dawley)
T1 sequence (P30551 1-444): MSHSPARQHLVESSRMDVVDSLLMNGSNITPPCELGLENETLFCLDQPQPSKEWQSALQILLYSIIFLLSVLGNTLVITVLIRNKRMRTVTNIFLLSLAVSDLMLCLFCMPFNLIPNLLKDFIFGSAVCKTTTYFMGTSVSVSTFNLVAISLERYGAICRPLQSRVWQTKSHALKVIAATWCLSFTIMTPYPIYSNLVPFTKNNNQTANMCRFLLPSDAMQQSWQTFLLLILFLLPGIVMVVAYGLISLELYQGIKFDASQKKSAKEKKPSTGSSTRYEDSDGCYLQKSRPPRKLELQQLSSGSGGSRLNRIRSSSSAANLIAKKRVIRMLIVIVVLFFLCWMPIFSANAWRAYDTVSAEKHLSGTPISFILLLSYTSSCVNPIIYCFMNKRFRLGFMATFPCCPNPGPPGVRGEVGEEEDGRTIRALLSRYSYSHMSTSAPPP
Method: 1. CCK Receptor BindinG (Pancreas)
CCK-33 was radiolabeled with ^125 I-Bolton Hunter reagent (2000 Ci/mmole) as described by Sankara et al. (J. Biol. Chem. 254: 9349-9351, 1979). Receptor bindinG was performed according to Innis and Snyder (Proc. Natl. Acad. Sci. 77: 6917-6921, 1980) with the minor modification of adding the additional protease inhibitors, phenylmethane sulfonyl fluoride and o-phenanthroline. The latter two compounds have no effect on the ^125 I-CCK receptor bindinG assay.
Male Sprague-Dawley rats (200-350 g) were sacrificed by decapitation. The whole pancreas was dissected free of fat tissue and was homogenized in 20 volumes of ice-cold 50 mM, Tris HCl (pH 7.7 at 25° C.) with a Brinkmann Polytron PT 10. The homogenates were centrifuged at 48,000 g for 10 min. Pellets were resuspended in Tris Buffer, centrifuged as above and resuspended in 200 volumes of binding assay buffer (50 mM Tris HCl, pH 7.7 at 25° C., 5 mM dithiothrietol, 0.1 mM bacitracin, 1.2 mM phenylmethane sulfonyl fluoride and 0.5 mM o-phenanthroline). For the binding assay, 25 μl of buffer (for total binding) or unlabeled CCK-8 sulfate to give a final concentration of 1 μM (for nonspecific binding) or the compounds of Formula I (for determination of inhibition of ^125 I CCK binding) and 25 μl of ^125 I-CCK 33 (30,000-40,000 cpm) were added to 450 μl of the membrane suspensions in microfuge tubes. All assays were run in duplicate or triplicate. The reaction mixtures were incubated at 37° C. for 30 minutes and centrifuged in a Beckman Microfuge (4 minutes) immediately after adding 1 ml of ice-cold incubation buffer. The supernatant was aspirated and discarded, pellets were counted with a Beckman gamma 5000. For Scatchard analysis (Ann. N.Y. Acad. Sci. 51: 660, 1949), ^125 I CCK 33 was progressively diluted with increasing concentrations of CCK 33.
1. Effect of The Compounds of Formula I on ^125 I-CCK-33 receptor binding
The preferred compounds of Formula I are those which inhibited specific ^125 I-CCK-33 binding in a concentration dependent manner.
A Ki value (dissociation constant of inhibitor) of the compounds of Formula I was estimated.

[2] = molecular target: T2, CCK receptor (brain, cerebral cortex) (Cavia porcellus, UniProt H0VZC5); experiment: CCK Receptor Binding (Brain), 125I-CCK-33; parameters: species or system guinea pig (male Hartley); settings: guinea pig cerebral cortex, 25° C., 2 hours
T2 construct: Cerebral cortex was dissected and used as a receptor source; from tissue; host or cells: guinea pig cerebral cortex membranes (male Hartley)
T2 sequence (H0VZC5 1-426): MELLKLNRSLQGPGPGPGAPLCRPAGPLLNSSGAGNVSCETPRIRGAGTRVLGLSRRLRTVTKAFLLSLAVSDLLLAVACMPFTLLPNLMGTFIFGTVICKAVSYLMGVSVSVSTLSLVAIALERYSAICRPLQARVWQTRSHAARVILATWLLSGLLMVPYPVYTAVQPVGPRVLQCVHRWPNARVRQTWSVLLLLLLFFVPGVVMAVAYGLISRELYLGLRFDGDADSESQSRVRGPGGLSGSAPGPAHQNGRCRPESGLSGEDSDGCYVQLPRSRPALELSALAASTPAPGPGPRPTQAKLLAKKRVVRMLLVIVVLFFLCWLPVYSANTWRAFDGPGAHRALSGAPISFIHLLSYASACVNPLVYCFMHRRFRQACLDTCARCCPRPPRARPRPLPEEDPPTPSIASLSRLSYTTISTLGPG
Method: 2. CCK Receptor Binding (Brain)
CCK 33 was radiolabeled and the binding was performed according to the description for the pancreas method with modifications according to Saito et al., J. Neurochem. 37:483-490, 1981.
Male Hartley guinea pigs (300-500 g) were sacrificed by decapitation and the brains were removed and placed in ice-cold 50 mM, Tris HCl plus 7.58 g/1 Trizma-7.4 (pH 7.4 at 25° C.). Cerebral cortex was dissected and used as a receptor source. Each gram of fresh guinea pig brain tissue was homogenized in 10 ml of Tris/Trizma buffer with a Brinkman polytron PT-10. The homogenates were centrifuged at 42,000 g for 15 minutes. Pellets were resuspended in Tris Buffer, centrifuged as above and resuspended in 200 volumes of binding assay buffer (10 mM N-2 -hydroxyethyl-piperazine-N'-2-ethane sulfonic acid (HEPES), 5 mM MgCl2, 0.25 mg/ml bacitracin, 1 mM ethylene glycol-bis-(β-aminoethylether-N,N'-tetraacetic acid) (EGTA), and 0.4% bovine serum albumin (BSA)). For the binding assay, 25 μl of buffer (for total binding) or unlabeled CCK-8 sulfate to give a final concentration of 1 μm (for nonspecific binding) or the compounds of Formula I (for determination of inhibition of ^125 I CCK binding) and 25 μl of ^125 I-CCK-33 (30,000-40,000 cpm) were added to 450 μl of the membrane suspensions in microfuge tubes. All assays were run in duplicate or triplicate. The reaction mixtures were incubated at 25° C. for 2 hours and centrifuged in a Beckman Microfuge (4 minutes) immediately after adding 1 ml of ice cold incubation buffer. The supernatant was aspirated and discarded, pellets were counted with a Beckman gamma 5000.

[3] = molecular target: T3, gastrin receptor (gastric glands) (Cavia porcellus, UniProt H0VZC5); experiment: Gastrin Receptor Binding in Guinea Pig Gastric Glands, 125I-gastrin; parameters: species or system guinea pig (male Hartley); settings: 25° C., 30 minutes
T3 construct: from tissue; host or cells: guinea pig gastric mucosal glands (male Hartley)
T3 sequence (H0VZC5 1-426): T2 sequence (H0VZC5 1-426)
Method: Gastrin antagonist activity of compounds of Formula I was determined using the following assay.
Gastrin Receptor Binding in Guinea Pig Gastric Glands Preparation of guinea pig gastric mucosal glands
Guinea pig gastric mucosal glands were prepared by the procedure of Berglingh and Obrink Acta Physiol. Scand. 96: 150 (1976) with a slight modification according to Praissman et al. C. J. Receptor Res. 3: (1983). Gastric mucosa from guinea pigs ( 300-500 g body weight, male Hartley) were washed thoroughly and minced with fine scissors in standard buffer consisting of the following: 130 mM NaCl, 12 mM NaHCo3, 3 mM NaH2 PO4, 3 mM Na2 HPO4, 3 mM K2 HPO4, 2 mM MgSO4, 1 mM CaCl2, 5 mM glucose and 4 mM L-glutamine, 25 mM HEPES at pH 7.4. The minced tissues were washed and then incubated in a 37° C. shaker bath for 40 minutes with the buffer containing 0.1% collagenase and 0.1% BSA and bubbled with 95% o2 and 5% CO2. The tissues were passed twice through a 5 ml glass syringe to liberate the gastric glands, and then filtered through 200 mesh nylon. The filtered glands were centrifuged at 270 g for 5 minutes and washed twice by resuspension and centrifugation.
The washed guinea pig gastric glands prepared as above were resuspended in 25 ml of standard buffer containing 0.25 mg/ml of bacitracin. For binding studies, to 220 μl of gastric glands in triplicate tubes, 10 μl of buffer (for total binding) or gastrin (1 μM final concentration, for nonspecific binding) or test compound and 10 μl of ^125 I-gastrin (NEN, 2200 Ci/mmole, 25 pM final) or ^3 H pentagastrin (NEN 22 Ci/mmole, 1 nM final) were added. The tubes were aerated with 95% O2 and 5% CO2 and capped. The reaction mixtures after incubation at 25° C. for 30 minutes were filtered under reduced pressure on glass G/F B filters (Whatman) and immediately washed further with 4×4 ml of standard buffer containing 0.1% BSA. The radioactivity on the filters was measured using a Beckman gamma 5500 for ^125 I-gastrin or liquid scintillation counting for ^3 H-pentagastrin.

[4] = tested on: CCK; settings: recently reported, J. M. Howard et al.; cited from earlier work
[5] = tested on: proteases; settings: limits duration of activity; cited from earlier work

Row | Compound | IC50 [1] | IC50 [2] | IC50 [3] | other results
1 | Nc1cc2c(cn1)[nH]c1ccccc12 [Example 2, 3-Amino-9H-pyrido(3,4-b)indole] | > 100 µM | > 100 µM | > 100 µM | –
2 | O=C(Cc1c[nH]c2ccccc12)Nc1cc2c(cn1)[nH]c1ccccc12 [Example 7, N-9H-Pyrido(3,4-b)indol-3-yl-1H-indole 3-acetamide] | 0.024 µM | – | – | –
3 | O=C(Nc1ccc(Cl)cc1)Nc1cc2c(cn1)[nH]c1ccccc12 [Example 4, N-(4-Chlorophenyl)-N^1 9-H-pyrido(3,4-b)indol-3-yl-urea] | 0.085 µM | – | – | –
4 | O=S(=O)(F)Cc1ccccc1 [phenylmethane sulfonyl fluoride, reference compound] | – | – | – | effect on the 125I-CCK receptor binding assay [1]: no effect
5 | O=C(Nc1cc2c(cn1)[nH]c1ccccc12)c1ccc(Cl)cc1 [Example 3, 4-Chloro-N-9H-pyrido(3.4-b)indol-3-yl-benzamide] | 3.5 µM | – | – | –
6 | O=C(Nc1cc2c(cn1)[nH]c1ccccc12)c1cccs1 [Example 5, N-9H-Pyrido(3,4-b)indol-3-yl 2 thiophene Carboxamide] | 9.8 µM | ~130 µM | > 100 µM | –
7 | Cn1c(C(=O)Nc2cc3c(cn2)[nH]c2ccccc23)cc2ccccc21 [Example 6, N-9H-Pyrido(3,4-b)indol-3-yl-1-methyl-1H-indole-2-carboxamide] | 0.71 µM | > 100 µM | > 100 µM | –
8 | CSCC[C@H](NC(=O)[C@H](Cc1ccc(OS(=O)(=O)O)cc1)NC(=O)OCc1ccccc1)C(=O)NCC(=O)N[C@@H](Cc1c[nH]c2ccccc12)C(=O)N[C@@H](CCSC)C(=O)N[C@@H](CC(=O)O)C(N)=O [Cbz-Tyr(SO3 H)-Met-Gly-Trp-Met-Asp-NH2] (Cbz-[sY]MGWMD-NH2) | – | – | – | CCK agonist/antagonist character [4]: partial agonist; degradation by proteases [5]: liable to degradation by proteases
9 | c1cnc2c(c1)ccc1cccnc12 [o-phenanthroline, reference compound] | – | – | – | effect on the 125I-CCK receptor binding assay [1]: no effect

Further lines, with some results ahead:

Row | IC50 [1] | IC50 [2] | IC50 [3] | Compound | other results
10 | 0.04 µM | 34 µM | 14 µM | O=C(Cc1ccccc1)Nc1cc2c(cn1)[nH]c1ccccc12 [Example 9, N-9H-Pyrido(3,4-b)indol-3-yl benzene Acetamide] | –
11 | 0.33 µM | – | – | O=C(CCc1ccccc1)Nc1cc2c(cn1)[nH]c1ccccc12 [Example 10, N-9H-Pyrido(3,4-b)indol-3-yl benzene Propanamide] | –
12 | 7.1 µM | 223 µM | > 100 µM | O=C(Nc1cc2c(cn1)[nH]c1ccccc12)c1ccccc1 [Example 8, N-9H-Pyrido(3,4-b)indol-3-yl benzamide] | –
